The assay addresses T1, ACE-2 (Homo sapiens, UniProt Q9BYF1).
T1 construct: a stop codon inserted after the serine immediately preceding the transmembrane domain; made in house; host or cells: CHO K1 cells (transient transfection, purified from conditioned medium)
As to the kind of experiment: ACE-2 Competitive Substrate Assay (ACS Assay). The class given is biochemical.

[1] abbreviates: Ki class, compounds tested in 5% DMSO, 12 compound concentrations, Ki=Kiapp/(1+[S]/Km), read-out: Human ACE-2 Activity.
Setting [2] is: Table 3, very good ACE-2 inhibiting compounds, species not given, read-out: ACE-2 Activity, Ki.

Like-named read-outs stand apart in the source and are kept apart here.

T1 sequence (Q9BYF1 18-740 limits assumed): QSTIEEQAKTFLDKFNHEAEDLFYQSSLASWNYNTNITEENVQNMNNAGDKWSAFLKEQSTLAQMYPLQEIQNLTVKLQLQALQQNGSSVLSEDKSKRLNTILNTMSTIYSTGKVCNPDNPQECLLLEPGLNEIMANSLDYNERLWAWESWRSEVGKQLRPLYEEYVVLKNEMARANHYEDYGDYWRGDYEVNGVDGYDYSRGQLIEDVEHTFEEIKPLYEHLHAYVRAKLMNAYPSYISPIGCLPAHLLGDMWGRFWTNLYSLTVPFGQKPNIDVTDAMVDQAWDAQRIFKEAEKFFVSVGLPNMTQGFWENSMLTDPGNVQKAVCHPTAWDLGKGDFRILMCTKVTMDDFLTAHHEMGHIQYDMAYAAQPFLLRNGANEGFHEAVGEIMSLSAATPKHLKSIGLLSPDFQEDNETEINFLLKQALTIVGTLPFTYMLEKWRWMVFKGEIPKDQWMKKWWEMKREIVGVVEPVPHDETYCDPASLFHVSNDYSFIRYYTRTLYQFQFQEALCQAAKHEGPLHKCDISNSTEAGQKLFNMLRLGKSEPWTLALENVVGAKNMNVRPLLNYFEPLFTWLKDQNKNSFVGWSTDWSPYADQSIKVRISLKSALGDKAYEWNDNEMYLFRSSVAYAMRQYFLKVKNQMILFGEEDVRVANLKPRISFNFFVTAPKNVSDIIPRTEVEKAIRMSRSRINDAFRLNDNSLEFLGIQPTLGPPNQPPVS

Turning to `CC(C)C[C@H](N[C@@H](Cc1ccc(OCc2ccccc2)cc1)C(=O)O)C(=O)O` [KQ, S,S-2-[2-(4-Benzyloxy-phenyl)-1-carboxy-ethylamino-]4-methyl-pentanoic acid], the Ki under setting [1] was 0.1 to 0.5 µM.

Consider `CC(C)C[C@H](N[C@@H](Cc1ccc(OCC2CCCCC2)cc1)C(=O)O)C(=O)O` [KR, S,S-2-[1-Carboxy-2-(4-cyclohexylmethoxy-phenyl)-ethylamino]-4-methyl pentanoic acid], for which, under setting [1], the Ki lay within 0.1 to 0.5 µM.

As for `CC(C)C[C@H](N[C@@H](Cc1ccc(OCc2cc(Cl)cc(Cl)c2)cc1)C(=O)O)C(=O)O` [KS, 2-[1-Carboxy-2-[4-(3,5-dichloro-benzyloxy)-phenyl]-ethylamino)-4-methyl-pentanoic acid], the Ki is < 0.1 µM under setting [1] and < 0.05 µM under setting [2].

As to `Cc1cc(C)cc(COc2ccc(C[C@H](N[C@@H](CC(C)C)C(=O)O)C(=O)O)cc2)c1` [KT, 2-[1-Carboxy-2-[4-(3,5-dimethyl-benzyloxy)-phenyl]-ethylamino]-4-methyl-pentanoic acid], the Ki under setting [1] lay within 0.1 to 0.5 µM.

On to `CC(C)C[C@H](N[C@@H](Cn1ccn(Cc2ccc(Cl)c(Cl)c2)c1=O)C(=O)O)C(=O)O` [KU, (S,S) 2-{1-Carboxy-2-[3-(3,4-dichloro-benzyl)-2-oxo-2,3-dihydro-imidazol-1-yl]ethylamino}-4-methyl-pentanoic acid], for which the Ki is, setting by setting: under setting [1], < 0.1 µM; under setting [2], 0.05 to 0.1 µM.

Regarding `CC(C)C[C@H](N[C@@H](CC(=O)Nc1nc2ccccc2s1)C(=O)O)C(=O)O` [KV, 2-[2-(Benzothiazol-2-ylcarbamoyl)-1-carboxy-ethylamino]-4-methyl-pentanoic acid], the Ki was < 0.1 µM under setting [1] and < 0.05 µM under setting [2].

For `CC(C)CC(NC(CC(=O)N1CCN(C(c2ccccc2)c2ccc(Cl)cc2)CC1)C(=O)O)C(=O)O` (stereo not drawn) [KW, 2-(1-Carboxy-3-[4-[(4-chloro-phenyl)-phenyl-methyl]-piperazin-1-yl]-3-oxo-propylamino)-4-methyl-pentanoic acid], under setting [1], the Ki was > 0.5 µM.

With `COC(=O)[C@H](Cc1cncn1Cc1cc(Cl)cc(Cl)c1)N[C@@H](CC(C)C)C(=O)O` [KX, (S,S) 2-{2-[3-(3,5-Dichloro-benzyl)-3H-imidazol-4-yl]-1-methoxycarbonyl-ethylamino}-4-methyl-pentanoic acid], the Ki is, setting by setting: under setting [1], < 0.1 µM; under setting [2], < 0.05 µM.

Regarding `COC(=O)[C@H](Cc1cncn1Cc1cc(Cl)cc(Cl)c1)N[C@H](CC(C)C)C(=O)O` [KY, 2-[2-[3-(3,5-Dichloro-benzyl)-3H-imidazol-4-yl]-1-methoxycarbonyl-ethylamino]-4-methyl-pentanoic acid], under setting [1], the Ki was in the range of 0.1 to 0.5 µM.

For the compound `CC1(C)SC(C(=O)O)NC1C(=O)O` (stereo not drawn) [L, 5,5-Dimethyl-thiazolidine-2,4-dicarboxylic acid], where the note is “Ki class, compounds tested in 5% DMSO, 12 concentrations, read-out: Human ACE-2 Activity”, the Ki is > 0.5 µM.

Turning to `COC(=O)[C@H](Cc1cncn1Cc1cc(Cl)cc(Cl)c1)N[C@H](CC(C)C)C(=O)OCc1ccccc1` [LA, 2-[2-[3-(3,5-Dichloro-benzyl)-3H-imidazol-4-yl]-1-methoxycarbonyl-ethylamino]-4-methyl-pentanoic acidbenzyl ester], the Ki under setting [1] is > 0.5 µM.

With `CC(C)C[C@H](N[C@@H](Cc1cncn1Cc1cc(Cl)cc(Cl)c1)C(=O)OCc1ccccc1)C(=O)O` [LB, (S,S) 2-{1-Benzyloxycarbonyl-2-[3-(3,5-dichloro-benzyl)-3H-imidazol-4-yl]-ethylamino}-4-methyl-pentanoic acid], the Ki under setting [1] is > 0.5 µM.

`CCCCOC(=O)[C@H](Cc1cncn1Cc1cc(Cl)cc(Cl)c1)N[C@@H](CC(C)C)C(=O)O` [LD, (S,S) 2-{1-Butoxycarbonyl-2-[3-(3,5-dichloro-benzyl)-3H-imidazol-4-yl]-ethylamino}-4-methyl-pentanoic acid]: under setting [1], the Ki is < 0.1 µM.

Consider `CCCCOC(=O)[C@H](Cc1cncn1Cc1cc(Cl)cc(Cl)c1)N[C@H](CC(C)C)C(=O)O` [LE, 2-[1-Butoxycarbonyl-2-[3-(3,5-dichloro-benzyl)-3H-imidazol-4-yl]-ethylamino]4-methyl-pentanoic acid], for which the Ki under setting [1] was > 0.5 µM.

Consider `CC(C)C[C@H](N[C@@H](Cn1ccn(Cc2cc(Cl)cc(Cl)c2)c1=O)C(=O)O)C(=O)O` [LF, (S,S) 2-{1-Carboxy-2-[3-(3,5-dichloro-benzyl)-2-oxo-2,3-dihydro-imidazol-1-yl]-ethylamino}-4-methyl-pentanoic acid], for which the Ki is < 0.1 µM under setting [1] and 0.05 to 0.1 µM under setting [2].

Consider `CC(C)C[C@H](N[C@@H](Cn1ccn(Cc2cc(F)cc(F)c2)c1=O)C(=O)O)C(=O)O` [LG, 2-[1-Carboxy-2-[3-(3,5-difluoro-benzyl)-2-oxo-2,3-dihydro-imidazol-1-yl]-ethylamino]-4-methyl-pentanoic acid], for which the Ki is < 0.1 µM under setting [1] and 0.05 to 0.1 µM under setting [2].

Take `CC(C)C[C@H](N[C@@H](Cn1ccn([C@@H](C)c2ccccc2)c1=O)C(=O)O)C(=O)O` [LH, (S,S)-2-{1-Carboxy-2-[2-oxo-3-(1-phenyl-ethyl)-2,3-dihydro-imidazol-1-yl]-ethylamino}-4-methyl-pentanoic acid]: under setting [1], the Ki lay in the range of 0.1 to 0.5 µM.

As to `CC(C)C[C@H](N[C@@H](CNC(=O)c1cccc(Cl)c1)C(=O)O)C(=O)O` [LI, (S,S)-2-[1-Carboxy-2-(3-chloro-benzoylamino)-ethylamino]-4-methyl-pentanoic acid], the Ki under setting [1] is > 0.5 µM.

With `CC(C)C[C@H](N[C@@H](CNC(=O)c1ccc(Cl)c(Cl)c1)C(=O)O)C(=O)O` [LJ, (S,S)-2-[1-Carboxy-2-(3,4-dichloro-benzoylamino)-ethylamino]-4-methyl-pentanoic acid], under setting [1], the Ki is > 0.5 µM.

`COC(=O)[C@H](Cc1cccc(O)c1)N[C@@H](CC(C)C)C(=O)OCc1ccccc1` [LK, 2-[2-(3-Hydroxy-phenyl)-1-methoxycarbonyl-ethylamino]-4-methyl-pentanoic acidbenzyl ester]: the Ki under setting [1] is > 0.5 µM.

On to `COC(=O)[C@@H](Cc1cccc(O)c1)N[C@@H](CC(C)C)C(=O)OCc1ccccc1` [LL, 2-[2-(3-Hydroxy-phenyl)-1-methoxycarbonyl-ethylamino]-4-methyl-pentanoic acid benzylester], for which, under setting [1], the Ki is > 0.5 µM.

Regarding `CC(C)C[C@H](N[C@@H](Cc1coc(-c2ccccc2)n1)C(=O)O)C(=O)O` [LM, (S,S)-2-[1-Carboxy-2-(2-phenyl-oxazol-4-yl)ethylamino]-4-methyl-pentanoic acid], under setting [1], the Ki is > 0.5 µM.

On to `CC(C)C[C@H](N[C@@H](Cc1coc(-c2cc(Cl)cc(Cl)c2)n1)C(=O)O)C(=O)O` [LN, (S,S)-2-{1-Carboxy-2-[2-(3,5-dichlorophenyl)-oxazol-4-yl]ethylamino}-4-methyl-pentanoic acid], for which the Ki by setting is: under setting [1], < 0.1 µM; under setting [2], 0.05 to 0.1 µM.

In the case of `CC(C)C[C@H](N[C@@H](Cc1csc(-c2cc(Cl)cc(Cl)c2)n1)C(=O)O)C(=O)O` [LO, (S,S)-2-{1-Carboxy-2-[2-(3,5-dichlorophenyl)-thiazol-4-yl]-ethylamino}-4-methyl-pentanoic acid], the Ki under setting [1] lay in the range of 0.1 to 0.5 µM.

As to `CC(C)C[C@H](N[C@@H](Cc1ccn(Cc2cc(Cl)cc(Cl)c2)n1)C(=O)O)C(=O)O` [LP, (S,S)-2-{1-carboxy-2-[1-(3,5-dichlorobenzyl)-1H-pyrazol-3-yl]-ethylamino}-4-methyl pentanoic acid], the Ki by setting is: under setting [1], < 0.1 µM; under setting [2], < 0.05 µM.

Take `CC(C)C[C@H](N[C@@H](Cc1cncn1Cc1cc(Cl)cc(Cl)c1)C(=O)OC1CCCC1)C(=O)O` [LQ, (S,S) 2-{1-Cyclopentyloxycarbonyl-2-[3-(3,5-dichloro-benzyl)-3H-imidazol-4-yl]-ethylamino}-4-methyl-pentanoic acid]: the Ki under setting [1] was > 0.5 µM.

With `CC(C)C[C@H](N[C@@H](CN1CCN(Cc2cc(F)cc(F)c2)C1=O)C(=O)O)C(=O)O` [LR, 2-[1-Carboxy-2-[3-(3,5-difluoro-benzyl)-2-oxo-imidazolidin-1-yl]-ethylamino]-4-methyl-pentanoic acid], the Ki under setting [1] lay in the range of 0.1 to 0.5 µM.

With `CC(C)C[C@H](N[C@@H](Cn1ccn(Cc2ccccc2)c1=O)C(=O)O)C(=O)O` [LS, 2-[2-(3-Benzyl-2-oxo-2,3-dihydro-imidazol-1-yl)-1-carboxy-ethylamino]-4-methyl-pentanoic acid], under setting [1], the Ki lay in the range of 0.1 to 0.5 µM.

As for `CC(C)C[C@H](N[C@@H](Cc1ccc(OCCc2ccccc2)cc1)C(=O)O)C(=O)O` [LT, 2-[1-Carboxy-2-(4-phenethyloxy-phenyl)-ethylamino]-4-methyl-pentanoic acid], the Ki under setting [1] fell in the range of 0.1 to 0.5 µM.

As to `CC(C)C[C@H](N[C@@H](Cc1ccc(OC(C)(C)C)cc1)C(=O)O)C(=O)O` [LU, 2-[2-(4-tert-Butoxy-phenyl)-1-carboxy-ethylamino]-4-methyl-pentanoic acid], the Ki under setting [1] was > 0.5 µM.

With `CC(C)C[C@H](N[C@@H](Cc1ccc(OCc2ccncc2)cc1)C(=O)O)C(=O)O` [LV, 2-[1-Carboxy-2-[4-(pyridin4-ylmethoxy)-phenyl]-ethylamino]-4-methyl-pentanoic acid], the Ki under setting [1] is < 0.1 µM and the Ki under setting [2] fell in the range of 0.05 to 0.1 µM.

On to `C=CCOc1ccc(C[C@H](N[C@@H](CC(C)C)C(=O)O)C(=O)O)cc1` [LW, 2-[2-(4-Allyloxy-phenyl)-1-carboxy-ethylamino]-4-methyl-pentanoic acid], for which the Ki is, setting by setting: under setting [1], < 0.1 µM; under setting [2], 0.05 to 0.1 µM.

In the case of `CC(C)C[C@H](N[C@@H](Cc1ccc(OCc2cccnc2)cc1)C(=O)O)C(=O)O` [LX, S,S-2-{1-Carboxy-2-[4-(pyridin-3-ylmethoxy)-phenyl]-ethylamino}-4-methyl pentanoic acid], the Ki under setting [1] was 0.1 to 0.5 µM.

With `Cc1ccc(-c2cccc(C[C@H](N[C@@H](CC(C)C)C(=O)O)C(=O)O)c2)cc1` [LY, (S,S)-2-[1-Carboxy-2-(4′-methyl-biphenyl-3-yl)-ethylamino]-4-methyl-pentanoic acid], the Ki under setting [1] was > 0.5 µM.

Regarding `COc1cccc(C(=O)NC[C@H](N[C@@H](CC(C)C)C(=O)O)C(=O)O)c1` [LZ, 2-[1-Carboxy-2-(3-methoxy-benzoylamino)-ethylamino]-4-methyl-pentanoic acid], under setting [1], the Ki is 0.1 to 0.5 µM.
